Common to all, as to type: in vivo
Experiment [1] relates to barnyard grass (Eo). The experiment can be described thus: Test Example 1: herbicidal effects by flooded paddy field treatment. Further details: herbicidal effects, Eo (barnyard grass):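 0-5 growth inhibition grade; 5 = over 90%; 4 = 70-90%; 3 = 50-70%; 2 = 30-50%; 1 = 10-30%; 0 = under 10%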. The conditions noted are these: dose 100 g active ingredient per 10 ares, examined on the 21st day after treatment, standards of Table 44. The procedure, abridged:
(§1)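 Seeds were sown in puddled paddy soil in pots and flooded to 3 cm. The next day a water-diluted wettable powder was dripped onto the water surface at 100 g active ingredient per 10 ares. Plants grew in a greenhouse, and herbicidal effect was scored on a rating scale 21 days after treatment.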

The subject of experiment [2] is monochoria (Mo). The description is as above. The conditions noted are these: dose 100 g active ingredient per 10 ares, examined on the 21st day after treatment, standards of Table 44. Further details: herbicidal effects, Mo (monochoria):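 0-5 growth inhibition grade; 5 = over 90%; 4 = 70-90%; 3 = 50-70%; 2 = 30-50%; 1 = 10-30%; 0 = under 10%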. The procedure, abridged:
as §1

Experiment [3] deals with barnyard grass (Ec). The experiment can be described thus: Test Example 3: herbicidal effects by foliage treatment in upland field. Further details: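 0-5 growth inhibition grade; 5 = over 90%; 4 = 70-90%; 3 = 50-70%; 2 = 30-50%; 1 = 10-30%; 0 = under 10%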. The conditions noted are these: dose 100 g active ingredient per 10 ares, examined on the 14th day after treatment. The procedure:
In a 80 cm^2 plastic pot, upland soil was filled, and seeds of barnyard grass (Ec) and green foxtail (Se) were sown and cultured in a green house for 2 weeks. Then, a wettable powder prepared in accordance with Formulation Example 1 was diluted with water and applied to the entire foliage from above the plants by means of a small size spray at a rate of 100 l per 10 ares so that the dose of the active ingredient would be 100 g per 10 ares. Thereafter, cultivation was carried out in a green house, and on the 14th day after the treatment, the herbicidal effects were examined in accordance with the standards of Table 44.

The test system of experiment [4] is barnyard grass (Ec). The experiment can be described thus: Test Example 2: herbicidal effects by upland soil treatment. Further details: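 0-5 growth inhibition grade; 5 = over 90%; 4 = 70-90%; 3 = 50-70%; 2 = 30-50%; 1 = 10-30%; 0 = under 10%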. The conditions noted are these: dose 100 g active ingredient per 10 ares, examined on the 21st day after treatment. The procedure, abridged: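 Pre-emergence test: barnyard grass and green foxtail sown in upland soil, then soil surface sprayed with wettable-powder formulation at 100 g active ingredient per 10 ares (100 l per 10 ares). Grown in greenhouse; herbicidal effect scored on a rating scale 21 days after treatment.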

`CC(C)C(c1cncnc1C(F)(F)F)N(C)C(=O)N(C)c1ccc(Cl)cc1` (racemic) [1-427]: the “herbicidal effects, Eo (barnyard grass)” value in experiment [1] was 5. Moreover, the “herbicidal effects, Mo (monochoria)” value in experiment [2] turned out to be 5. The “Ec (herbicidal effects, index)” value in experiment [3] is recorded as 4; in experiment [4] it was 5.
As for `CCCc1ncncc1C(C(C)C)N(C)C(=O)Cc1ccccc1` (racemic) [1-445], in experiment [1], the “herbicidal effects, Eo (barnyard grass)” value came out at 5. For the same compound, the “herbicidal effects, Mo (monochoria)” value in experiment [2] is given as 5. Also, the “Ec (herbicidal effects, index)” value in experiment [3] and in experiment [4] was 5 in each case.
In the case of `CC(C(=O)N(C)C(c1cncnc1C(F)(F)F)C(C)C)c1ccc(Br)s1` (mixture of isomers) [2-61], in experiment [1], the “herbicidal effects, Eo (barnyard grass)” value is 5. Further, the “herbicidal effects, Mo (monochoria)” value in experiment [2] came out at 5. In addition, the “Ec (herbicidal effects, index)” value was found to be 4 in experiment [3] and 5 in experiment [4].
Take `COCc1ncncc1C(C(C)C)N(C)C(=O)Cc1ccc(Cl)cc1` (racemic) [1-589]: in experiment [1], the “herbicidal effects, Eo (barnyard grass)” value was 5. Moreover, the “herbicidal effects, Mo (monochoria)” value in experiment [2] was 5. Besides, the “Ec (herbicidal effects, index)” value in experiment [3] was 4; in experiment [4], 5.
Consider `CCCC(c1cncnc1C(C)C)N(C)C(=O)Cc1ccc(Cl)cc1` (racemic) [1-451], for which the “herbicidal effects, Eo (barnyard grass)” value in experiment [1] was 5. In experiment [2], the “herbicidal effects, Mo (monochoria)” value was 5. Further, the “Ec (herbicidal effects, index)” value in experiment [3] worked out at 4; in experiment [4], 5.
With `CC(C)CC(c1cncnc1C(F)(F)F)N(C)C(=O)Cc1ccc(F)cc1` (racemic) [1-331], the “herbicidal effects, Eo (barnyard grass)” value in experiment [1] is listed as 5. In addition, in experiment [2], the “herbicidal effects, Mo (monochoria)” value was 5. Moreover, the results for the “Ec (herbicidal effects, index)” value in experiment [3] and in experiment [4] were 4 and 5, respectively.
As for `CCc1ncncc1C(C(C)C)N(C)C(=O)N(C)c1ccccc1` (racemic) [1-538], the “herbicidal effects, Eo (barnyard grass)” value in experiment [1] is listed as 5. Also, the “herbicidal effects, Mo (monochoria)” value in experiment [2] came out at 5. Moreover, the figures for the “Ec (herbicidal effects, index)” value in experiment [3] and in experiment [4] were 4 and 5, respectively.
Consider `Cc1ccc(C(C)C(=O)N(C)C(c2cncnc2C(F)(F)F)C(C)C)s1` (mixture of isomers) [2-60], for which, in experiment [1], the “herbicidal effects, Eo (barnyard grass)” value is reported as 5. In experiment [2], the “herbicidal effects, Mo (monochoria)” value is reported as 5. Besides, the results for the “Ec (herbicidal effects, index)” value in experiment [3] and in experiment [4] were 4 and 5, respectively.
`CCC(c1cncnc1C(C)C)N(C)C(=O)Cc1ccc(F)cc1` (racemic) [1-437]: in experiment [1], the “herbicidal effects, Eo (barnyard grass)” value was 5. For the same compound, the “herbicidal effects, Mo (monochoria)” value in experiment [2] worked out at 5. Besides, the “Ec (herbicidal effects, index)” value in experiment [3] came out at 4; in experiment [4], 5.
In the case of `Cc1ccc(N(C)C(=O)N(C)C(c2cncnc2C(C)C)C(C)C)cc1` (racemic) [1-431], in experiment [1], the “herbicidal effects, Eo (barnyard grass)” value is reported as 5. In experiment [2], the “herbicidal effects, Mo (monochoria)” value amounted to 5. For the same compound, the “Ec (herbicidal effects, index)” value in experiment [3] was determined as 4; in experiment [4], 5.
On to `CCC(C)C(c1cncnc1C(F)(F)F)N(C)C(=O)Cc1cccs1` (mixture of isomers) [2-11], for which, in experiment [1], the “herbicidal effects, Eo (barnyard grass)” value is listed as 5. In experiment [2], the “herbicidal effects, Mo (monochoria)” value came out at 5. Besides, the “Ec (herbicidal effects, index)” value in experiment [3] and in experiment [4] was 5 throughout.
As for `CCc1ncncc1C(C(C)C)N(C)C(=O)Cc1ccc(Cl)cc1` (racemic) [1-434], the “herbicidal effects, Eo (barnyard grass)” value in experiment [1] turned out to be 5. Besides, in experiment [2], the “herbicidal effects, Mo (monochoria)” value was 5. Moreover, the “Ec (herbicidal effects, index)” value worked out at 4 in experiment [3] and 5 in experiment [4].
For `CON=CC(c1cncnc1C(C)C)N(C)C(=O)Cc1ccc(Cl)cc1` (racemic) [1-464], in experiment [1], the “herbicidal effects, Eo (barnyard grass)” value was determined as 5. Also, the “herbicidal effects, Mo (monochoria)” value in experiment [2] turned out to be 5. Also, the “Ec (herbicidal effects, index)” value in experiment [3] is given as 4; in experiment [4] it was 5.
With `C#CCN(C(=O)Cc1ccc(Cl)cc1)C(c1cncnc1CC)C(C)C` (racemic) [1-560], the “herbicidal effects, Eo (barnyard grass)” value in experiment [1] amounted to 5. For the same compound, the “herbicidal effects, Mo (monochoria)” value in experiment [2] is recorded as 5. The “Ec (herbicidal effects, index)” value came to 4 in experiment [3] and 5 in experiment [4].
Take `CN(C(=O)Cc1ccc(Cl)cc1)C(c1cncnc1C(F)(F)F)C1(C)CC1` (racemic) [1-411]: in experiment [1], the “herbicidal effects, Eo (barnyard grass)” value is 5. Further, the “herbicidal effects, Mo (monochoria)” value in experiment [2] is given as 5. Also, the “Ec (herbicidal effects, index)” value in experiment [3] was determined as 4; in experiment [4] it was 5.
Take `CC(C)CC(c1cncnc1C(F)(F)F)N(C)C(=O)Cc1cccs1` (racemic) [2-51]: the “herbicidal effects, Eo (barnyard grass)” value in experiment [1] amounted to 5. Also, the “herbicidal effects, Mo (monochoria)” value in experiment [2] is 5. Moreover, the entries for the “Ec (herbicidal effects, index)” value in experiment [3] and in experiment [4] were 4 and 5, respectively.
Take `CC(C)C(c1cncnc1C(F)(F)F)N(C)C(=O)COc1cc(C(F)(F)F)nn1C` (racemic) [2-46]: the “herbicidal effects, Eo (barnyard grass)” value in experiment [1] came to 5. Further, in experiment [2], the “herbicidal effects, Mo (monochoria)” value is listed as 5. Besides, the “Ec (herbicidal effects, index)” value came to 4 in experiment [3] and 5 in experiment [4].
For the compound `CON=C(C)C(c1cncnc1C(C)C)N(C)C(=O)Cc1ccc(F)cc1` (racemic) [1-563], the “herbicidal effects, Eo (barnyard grass)” value in experiment [1] is listed as 5. In addition, the “herbicidal effects, Mo (monochoria)” value in experiment [2] is given as 5. Also, the “Ec (herbicidal effects, index)” value in experiment [3] and in experiment [4] was 5 each time.
For `COc1ccccc1C(c1cncnc1C(F)(F)F)N(C)C(=O)Cc1ccccc1` (racemic) [1-488], the “herbicidal effects, Eo (barnyard grass)” value in experiment [1] turned out to be 5. For the same compound, the “herbicidal effects, Mo (monochoria)” value in experiment [2] was 5. Besides, the “Ec (herbicidal effects, index)” value in experiment [3] and in experiment [4] was 5 throughout.
For the compound `CC(=O)c1ncncc1C(C(C)C)N(C)C(=O)Cc1ccccc1` (racemic) [1-526], the “herbicidal effects, Eo (barnyard grass)” value in experiment [1] turned out to be 5. In addition, the “herbicidal effects, Mo (monochoria)” value in experiment [2] came out at 5. Moreover, the “Ec (herbicidal effects, index)” value in experiment [3] and in experiment [4] was 5 throughout.
On to `CC(C)CC(c1cncnc1C(F)(F)F)N(C)C(=O)Cc1ccccc1` (racemic) [1-330], for which, in experiment [1], the “herbicidal effects, Eo (barnyard grass)” value was found to be 5. In experiment [2], the “herbicidal effects, Mo (monochoria)” value turned out to be 5. Also, the “Ec (herbicidal effects, index)” value in experiment [3] is listed as 4; in experiment [4], 5.
`CON=CC(c1cncnc1C(C)C)N(C)C(=O)Cc1ccc(F)cc1` (racemic) [1-463]: the “herbicidal effects, Eo (barnyard grass)” value in experiment [1] is reported as 5. The “herbicidal effects, Mo (monochoria)” value in experiment [2] is recorded as 5. In addition, the “Ec (herbicidal effects, index)” value in experiment [3] and in experiment [4] was 4 each time.
As for `CCc1ncncc1C(C(C)C)N(C)C(=O)N(C)c1ccc(Cl)cc1` (racemic) [1-540], in experiment [1], the “herbicidal effects, Eo (barnyard grass)” value is 5. Moreover, the “herbicidal effects, Mo (monochoria)” value in experiment [2] is reported as 5. Moreover, the “Ec (herbicidal effects, index)” value in experiment [3] came out at 4; in experiment [4], 5.
For `CCC(C)C(c1cncnc1C(F)(F)F)N(C)C(=O)Cc1ccsc1` (mixture of isomers) [2-12], the “herbicidal effects, Eo (barnyard grass)” value in experiment [1] came out at 5. Further, in experiment [2], the “herbicidal effects, Mo (monochoria)” value amounted to 5. Besides, the “Ec (herbicidal effects, index)” value in experiment [3] and in experiment [4] was 5 throughout.
As to `CC(C)c1ncncc1C(C(C)C)N(C)C(=O)N(C)c1ccc(Cl)cc1` (racemic) [1-430], the “herbicidal effects, Eo (barnyard grass)” value in experiment [1] came to 5. For the same compound, the “herbicidal effects, Mo (monochoria)” value in experiment [2] is 5. The “Ec (herbicidal effects, index)” value came to 4 in experiment [3] and 5 in experiment [4].
With `COc1ncncc1C(C(C)C)N(C)C(=O)Cc1ccc(F)cc1` (racemic) [1-402], the “herbicidal effects, Eo (barnyard grass)” value in experiment [1] was 5. For the same compound, the “herbicidal effects, Mo (monochoria)” value in experiment [2] was 5. The “Ec (herbicidal effects, index)” value in experiment [3] and in experiment [4] was 5 in each case.
Turning to `CN(C(=O)Cc1ccccc1)C(c1ccccc1F)c1cncnc1C(F)(F)F` (racemic) [1-546], in experiment [1], the “herbicidal effects, Eo (barnyard grass)” value is reported as 5. Besides, the “herbicidal effects, Mo (monochoria)” value in experiment [2] was 5. Further, the “Ec (herbicidal effects, index)” value in experiment [3] turned out to be 4; in experiment [4], 5.
Consider `CC(C)C(c1cncnc1C(F)(F)F)N(C)C(=O)N(C)c1ccc(F)cc1F` (racemic) [1-537], for which, in experiment [1], the “herbicidal effects, Eo (barnyard grass)” value was 5. Moreover, in experiment [2], the “herbicidal effects, Mo (monochoria)” value was 5. Moreover, the results for the “Ec (herbicidal effects, index)” value in experiment [3] and in experiment [4] were 4 and 5, respectively.
`CC(C(=O)N(C)C(c1cncnc1C(F)(F)F)C(C)C)c1cccs1` (mixture of isomers) [2-62]: the “herbicidal effects, Eo (barnyard grass)” value in experiment [1] is 5. The “herbicidal effects, Mo (monochoria)” value in experiment [2] is on record as 5. In addition, the “Ec (herbicidal effects, index)” value in experiment [3] is 4; in experiment [4], 5.
Turning to `COc1ncncc1C(C(C)C)N(C)C(=O)Cc1ccc(Cl)cc1` (racemic) [1-403], the “herbicidal effects, Eo (barnyard grass)” value in experiment [1] is recorded as 5. Further, in experiment [2], the “herbicidal effects, Mo (monochoria)” value is given as 5. Besides, the “Ec (herbicidal effects, index)” value in experiment [3] is 4; in experiment [4], 5.
